Experimental data as given in patent US11311520B2, “Substituted dihydroimidazopyridinediones as MKNK1 and MKNK2 inhibitors” (Bayer Pharma Aktiengesellschaft, priority 2017, dated 2022).
Structures can show the parent of a compound that is named as a salt.

Biological target: human full-length MKNK1 (Homo sapiens (Human), UniProt Q9BUB5, T344D)
Assay: MKNK1 kinase high ATP assay (TR-FRET)
Format: biochemical
Settings: 2 mM ATP, 15 min preincubation with enzyme, GST-MKNK1 (T344D)
Summary of the method: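 GST-tagged full-length human MKNK1 (1-424, T344D, baculovirus-expressed) preincubated 15 min at 22 °C with compound, then reacted 30 min at 22 °C with 2 mM ATP and 0.06 μM biotinylated peptide (final) in HEPES pH 7.5. Phospho-substrate by TR-FRET (665/622 nm ratio), normalised to no-inhibitor and no-enzyme controls.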

Chain of human full-length MKNK1 (Q9BUB5 other isoform, or with tags, fused parts or gaps T344D): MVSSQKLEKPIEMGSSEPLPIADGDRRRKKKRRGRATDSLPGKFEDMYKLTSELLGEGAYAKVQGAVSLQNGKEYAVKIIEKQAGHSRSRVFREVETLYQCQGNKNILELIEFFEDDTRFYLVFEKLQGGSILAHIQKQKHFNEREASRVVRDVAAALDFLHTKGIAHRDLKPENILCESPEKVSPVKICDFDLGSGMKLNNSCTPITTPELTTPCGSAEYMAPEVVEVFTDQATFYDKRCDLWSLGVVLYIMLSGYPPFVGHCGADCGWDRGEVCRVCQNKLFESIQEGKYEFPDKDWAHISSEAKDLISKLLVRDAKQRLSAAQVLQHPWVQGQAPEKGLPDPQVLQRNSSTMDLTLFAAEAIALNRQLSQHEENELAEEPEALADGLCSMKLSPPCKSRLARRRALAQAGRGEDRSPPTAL

Row | Compound | IC50 | also measured
1 | Cc1cc(Nc2ncnc3sc(C(=O)N4C[C@H]5C[C@@H]4CN5C)cc23)c(=O)n2c1C(=O)NC21CCCCC1 [Example 42, 8′-Methyl-6′-[(6-{[(1R,4R)-5-methyl-2,5-diazabicyclo[2.2.1]hept-2-yl]carbonyl}thieno[2,3-d]pyrimidin-4-yl)amino]-2′H-spiro[cyclohexane-1,3′-imidazo[1,5-a]pyridine]-1′,5′-dione] | 1.9 nM | –
2 | Cc1cc(Nc2ncnc3[nH]ccc23)c(=O)n2c1C(=O)NC21CCC(O)(C(F)(F)F)CC1 (stereo not drawn) [Example 128, 4-Hydroxy-8′-methyl-6′-(7H-pyrrolo[2,3-d]pyrimidin-4-ylamino)-4-(trifluoromethyl)-2′H-spiro[cyclohexane-1,3′-imidazo[1,5-a]pyridine]-1′,5′-dione] | 1 nM | –
3 | Cc1cc(Nc2ncnc3sc(C(=O)NCCN(C)C)cc23)c(=O)n2c1C(=O)NC21CCC(F)(F)CC1 [Example 81, 4-[(4,4-Difluoro-8′-methyl-1′,5′-dioxo-1′,5′-dihydro-2′H-spiro[cyclohexane-1,3′-imidazo[1,5-a]pyridin]-6′-yl)amino]-N-[2-(dimethylamino)ethyl]thieno[2,3-d]pyrimidine-6-carboxamide] | 5 nM | –
4 | Cc1cc(Nc2ccnc3ccccc23)c(=O)n2c1C(=O)NC21CCCCC1 [Example 4, 8′-Methyl-6′-(quinolin-4-ylamino)-2′H-spiro[cyclohexane-1,3′-imidazo[1,5-a]pyridine]-1′,5′-dione] | 306 nM | –
5 | Cc1cc(Nc2ncnc3ccc(Cl)cc23)c(=O)n2c1C(=O)NC21CCCC1 [Example 98, 6′-[(6-Chloroquinazolin-4-yl)amino]-8′-methyl-2′H-spiro[cyclopentane-1,3′-imidazo[1,5-a]pyridine]-1′,5′-dione] | 7.6 nM | –
6 | Cc1cc(Nc2ncnc3sc(C(=O)N4CC(NC(=O)OC(C)(C)C)C4)cc23)c(=O)n2c1C(=O)NC21CCCC1 [Example 62, tert-Butyl [1-({4-[(8′-methyl-1′,5′-dioxo-1′,5′-dihydro-2′H-spiro[cyclopentane-1,3′-imidazo[1,5-a]pyridin]-6′-yl)amino]thieno[2,3-d]pyrimidin-6-yl}carbonyl)azetidin-3-yl]carbamate] | 4 nM | –
7 | Cc1cc(Nc2ncnc3occc23)c(=O)n2c1C(=O)NC21CCCCC1 [Example 52, 6′-(Furo[2,3-d]pyrimidin-4-ylamino)-8′-methyl-2′H-spiro[cyclohexane-1,3′-imidazo[1,5-a]pyridine]-1′,5′-dione] | 13 nM | –
8 | Cc1cc(Nc2ncnc3sc(C(=O)N4CCN(C)CC4)cc23)c(=O)n2c1C(=O)NC21CCCCC1 [Example 12, 8′-Methyl-6′-({6-[(4-methylpiperazin-1-yl)carbonyl]thieno[2,3-d]pyrimidin-4-yl}amino)-2′H-spiro[cyclohexane-1,3′-imidazo[1,5-a]pyridine]-1′,5′-dione] | 27.2 nM | –
9 | Cc1cc(Nc2ncnc3cc(Cl)ccc23)c(=O)n2c1C(=O)NC21CCCC1 [Example 186, 6′-[(7-chloroquinazolin-4-yl)amino]-8′-methyl-2′H-spiro[cyclopentane-1,3′-imidazo[1,5-a]pyridine]-1′,5′-dione] | 5.5 nM | –
10 | Cc1cc(Nc2ncnc3[nH]ccc23)c(=O)n2c1C(=O)NC21CCC(F)(F)CC1 [Example 92, 4,4-Difluoro-8′-methyl-6′-(7H-pyrrolo[2,3-d]pyrimidin-4-ylamino)-2′H-spiro[cyclohexane-1,3′-imidazo[1,5-a]pyridine]-1′,5′-dione hydrochloride] | – | IC50 (hydrochloride): 1.2 nM
11 | Cc1cc(Nc2ncnc3sccc23)c(=O)n2c1C(=O)N[C@]21CC[C@@](O)(C(F)(F)C(F)(F)F)CC1 [Example 193, (cis)-4-hydroxy-8′-methyl-4-(pentafluoroethyl)-6′-[(thieno[2,3-d]pyrimidin-4-yl)amino]-2′H-spiro[cyclohexane-1,3′-imidazo[1,5-a]pyridine]-1′,5′-dione] | 29.8 nM | –
12 | Cc1cc(Nc2ncnc3sc(C(=O)N(C)CCN(C)C)cc23)c(=O)n2c1C(=O)NC21CCCC1 [Example 60, N-[2-(Dimethylamino)ethyl]-N-methyl-4-[(8′-methyl-1′,5′-dioxo-1′,5′-dihydro-2′H-spiro[cyclopentane-1,3′-imidazo[1,5-a]pyridin]-6′-yl)amino]thieno[2,3-d]pyrimidine-6-carboxamide] | 6.3 nM | –
13 | Cc1cc(Nc2ncnc3[nH]ccc23)c(=O)n2c1C(=O)N[C@]21CC[C@@](O)(C(F)(F)C(F)(F)F)CC1 [Example 194, (cis)-4-hydroxy-8′-methyl-4-(pentafluoroethyl)-6′-[(7H-pyrrolo[2,3-d]pyrimidin-4-yl)amino]-2′H-spiro[cyclohexane-1,3′-imidazo[1,5-a]pyridine]-1′,5′-dione] | 12.2 nM | –
14 | Cc1cc(Nc2ncnc3[nH]ccc23)c(=O)n2c1C(=O)NC21CSC1 [Example 178, 8-methyl-6-[(7H-pyrrolo[2,3-d]pyrimidin-4-yl)amino]-2H-spiro[imidazo[1,5-a]pyridine-3,3′-thietane]-1,5-dione] | 1.1 nM | –
15 | Cc1cc(Nc2ncnc3sc(C(=O)N4CC(C#N)C4)cc23)c(=O)n2c1C(=O)NC21CCCCC1 [Example 26, 1-({4-[(8′-Methyl-1′,5′-dioxo-1′,5′-dihydro-2′H-spiro[cyclohexane-1,3′-imidazo[1,5-a]pyridin]-6′-yl)amino]thieno[2,3-d]pyrimidin-6-yl}carbonyl)azetidine-3-carbonitrile] | 5 nM | –
16 | Cc1cc(Nc2ncnc3[nH]ccc23)c(=O)n2c1C(=O)NC21CCC(F)(F)CC1 [Example 91, 4,4-Difluoro-8′-methyl-6′-(7H-pyrrolo[2,3-d]pyrimidin-4-ylamino)-2′H-spiro[cyclohexane-1,3′-imidazo[1,5-a]pyridine]-1′,5′-dione methanesulfonate] | – | IC50 (methanesulfonate): 1.1 nM
17 | Cc1cc(Nc2ncnc3ccc(F)cc23)c(=O)n2c1C(=O)NC21CCC1 [Example 171, 6′-[(6-fluoroquinazolin-4-yl)amino]-8′-methyl-2′H-spiro[cyclobutane-1,3′-imidazo[1,5-a]pyridine]-1′,5′-dione] | 6 nM | –
18 | Cc1cc(Nc2ncnc3sc(C(=O)N4CC(C#N)C4)cc23)c(=O)n2c1C(=O)NC21CCC1 [Example 155, 1-({4-[(8′-Methyl-1′,5′-dioxo-1′,5′-dihydro-2′H-spiro[cyclobutane-1,3′-imidazo[1,5-a]pyridin]-6′-yl)amino]thieno[2,3-d]pyrimidin-6-yl}carbonyl)azetidine-3-carbonitrile] | 5.3 nM | –
19 | Cc1cc(Nc2ncnc3sc(C(=O)NCCN(C)C)cc23)c(=O)n2c1C(=O)NC2(C)C [Example 137, N-[2-(Dimethylamino)ethyl]-4-[(3,3,8-trimethyl-1,5-dioxo-1,2,3,5-tetrahydroimidazo[1,5-a]pyridin-6-yl)amino]thieno[2,3-d]pyrimidine-6-carboxamide] | 21.1 nM | –
20 | Cc1cc(Nc2ncnc3sc(C(=O)N4C[C@H]5C[C@@H]4CO5)cc23)c(=O)n2c1C(=O)NC2(C)C [Example 144, 3,3,8-Trimethyl-6-({6-[(1R,4R)-2-oxa-5-azabicyclo[2.2.1]hept-5-ylcarbonyl]thieno[2,3-d]pyrimidin-4-yl}amino)-2,3-dihydroimidazo[1,5-a]pyridine-1,5-dione] | 12.9 nM | –
21 | Cc1cc(Nc2ncnc3sc(C(=O)O)c(C)c23)c(=O)n2c1C(=O)NC21CCCC1 [Example 95, 5-Methyl-4-[(8′-methyl-1′,5′-dioxo-1′,5′-dihydro-2′H-spiro[cyclopentane-1,3′-imidazo[1,5-a]pyridin]-6′-yl)amino]thieno[2,3-d]pyrimidine-6-carboxylic acid] | 5.8 nM | –
